From patent US20100305213A1, “TREATMENT OF HEART DISEASE USING BETA-BLOCKERS” (Bayer Animal Health GmbH, priority 2007, published 2010)
Where a name gives a salt, the structure may show the parent alone.

Columns and labels:
[1] = system: dogs with pacing-induced heart failure; type: in vivo
Protocol: A study was conducted with two groups of conscious dogs with pacing-induced heart failure to determine the tolerance and potential effects of different doses of bisoprolol fumarate. […] ECG (PQ, QRS, RR, QT, QTcF, and QTcV intervals), echocardiography (left ventricular shortening fraction (LVSF) and systemic arterial blood pressure (SBP, DBP, MAP and pulse pressure) were monitored in the two groups. Heart failure was produced by rapid ventricular pacing to reduce left ventricular shortening fraction (LVSF) greater than 15% from baseline.
In the first group, the conservative up-titration study, the dogs were treated with weekly increasing oral doses of 0.005, 0.01, 0.03, 0.05 and 0.1 mg/kg bisoprolol fumarate. In the second group, the aggressive up-titration study, the dogs were treated with weekly increasing doses of 0.01, 0.05, 0.1, 0.5 and 1 mg/kg bisoprolol fumarate on top of a dose of 0.5 mg/kg of enalapril, 4 mg/kg of furosemide, and 0.003 mg/kg of digoxin. These two groups were compared to a placebo group that was treated with the same doses of the standard heart failure therapy (enalapril, furosemide and digoxin) alone.

[2] = system: transient outward K+ current (Ito); test: Transient outward K+ current recordings in isolated ventricular myocytes of treated dogs; type: in vivo, dog
Text: (§1) After altogether 5 weeks of treatment the dogs were anaesthetized according to standard veterinary procedures and ex vivo ventricular myocytes were directly isolated from the mid-lateral left ventricular free wall using an isolation procedure described by Kubalova et al., which results in isolation of myocytes from the midmyocardial region. Afterwards the animals were humanely euthanized. Recordings of single cell action potentials and K+ currents were made. See Kubalova et al., Abnormal intrastore calcium signaling in chronic heart failure, Proc Nat Acad Sci 2005; 102: 14104-14109. There are two K+ currents which are expected to modulate the resting membrane potential and the action potential duration, and are known to be altered during heart failure, the inward and the outward K+ currents. The transient outward K+ current, (Ito) was recorded in all four groups and data was recorded and analyzed.

[3] = system: isolated ventricular myocytes; test: Action potentials in ventricular myocytes isolated ex vivo after 5 weeks of treatment (perforated whole cell patch clamp); design: species or system dog; details: for APD50 compared to the placebo-treated heart failure group / APD90 compared to normal controls / heart failure induced prolongation of the APD90: 0.5 and 1 Hz
Text: After altogether 5 weeks of treatment the dogs were anaesthetized according to standard veterinary procedures and ex vivo ventricular myocytes were directly isolated from the mid-lateral left ventricular free wall using an isolation procedure described by Kubalova et al., which results in isolation of myocytes from the midmyocardial region. Afterwards the animals were humanely euthanized. Recordings of single cell action potentials and K+ currents were made. See Kubalova et al., Abnormal intrastore calcium signaling in chronic heart failure, Proc Nat Acad Sci 2005; 102: 14104-14109. For measurement of the action potentials myocytes were placed in a laminin coated cell chamber and superfused with a bath solution. Only quiescent myocytes with sharp margins and clear striations were used for the electrophysiological study. Borosilicate glass micropipettes were filled with a pipette solution that was pH adjusted to 7.2. Perforated whole cell patch clamp was used to minimize alterations in the intracellular milieu. Action Potentials (APs) were recorded with the perforated whole cell patch techniques. Action potentials were recorded in isolated ventricular myocytes, which were characterized in the standard manner as the durations to 50% and 90% of repolarization. APs were measured as the average of the last 10 (steady-state) APs, obtained during a train of twenty five APs at each stimulation rate. An average of 2-3 myocytes was measured from each heart failure dog. Action Potentials were recorded in four groups. The following numbers of recordings were obtained and used in the analyzed data (number (n) indicates the number of myocytes): Control (CTRL, untreated, healthy dogs) (n=10) HF-placebo (placebo-treated dogs in heart failure (HF-PL)) (n=17) HF-C-Up bisoprolol, according to conservative up-titration bisoprolol treated dogs in heart failure (n=13) HF-A-Up bisoprolol, according to aggressive up-titration bisoprolol treated dogs in heart failure (n=15) Resting membrane potential was measured at 0.5 Hz and 1 Hz to bracket the physiologic range of resting heart rates (FIG. 1).

[4] = system: inward rectifier K+ current (IK1); test: Inward rectifier K+ current recordings in isolated ventricular myocytes of treated dogs; type: in vivo, dog
Text: as §1, with “The inward rectifier K+ current (IK1) is the primary determinant of the resting membrane potential (inward current) and modulates the final phase of repolarization (outward current). Reductions in inward current result in depolarization of the resting potential, while reductions in” for “The transient”, “outward current can contribute to action potential duration prolongation. IK1” for “outward K+ current, (Ito)”, “in each of the” for “in all”, “four groups,” for “four groups and”, “analyzed. The peak outward K+ current was recorded in each of the four groups (FIG. 5 bottom), data was recorded and analyzed.” for “analyzed.”

[5] = aggressive up-titration (HF-A-Up)
[6] = conservative up-titration (HF-C-Up)

In the case of `CC(C)NCC(O)COc1ccc(COCCOC(C)C)cc1` (stereo not drawn) [bisoprolol fumarate], the tolerance ([1]; dog, in vivo, po) is reported as “well tolerated”, the “cardioselective β-blockade effect (prolongation of PQ interval and reduction of heart rate)” value ([1]; doses used in both up-titration groups, dogs with heart failure) is reported as “near to maximum cardioselective β-blockade effect” and the “effects of heart failure on Ito” value ([2]; aggressive up-titration protocol (HF-A-Up Bis)) is reported as “did not alter”. For the same compound, the “heart failure induced reductions in Ito” value ([2]; conservative up-titration protocol (HF-C-Up Bis), at the two highest test potentials (+40 and +50 mV)) was “significantly attenuated”, the “APD50 compared to normal control myocytes” value [3, 5] was “did not differ” and the “APD50 compared to the placebo-treated heart failure group” value [3, 5] was “statistically significant reduction”. For the same compound, the “APD90 compared to normal controls” value [3, 5] was “did not differ”, the “heart failure induced prolongation of the APD90” value [3, 5] was “significantly attenuated” and the “APD50 compared to normal control myocytes” value [3, 6] was “did not differ”. The “APD50 compared to the placebo-treated heart failure group” value [3, 6] was “statistically significant reduction”, the “APD90 compared to normal controls” value [3, 6] was “did not differ” and the “heart failure induced prolongation of the APD90” value [3, 6] was “significantly attenuated”. For the same compound, the “HF-induced changes in the action potential durations (particularly APD90 prolongation)” value ([3]; summary, both conservative and aggressive up-titration dosing regimens, physiologically relevant heart rates) was “significantly attenuated and even reversed to the physiological normal”, the “inward IK1 current conductance, difference between the groups” value ([4]; all four groups) was “no difference” and the “peak outward IK1 current” value ([4]; conservative up-titration (HF-C-Up) relative to placebo (HF PL) and HF-A-Up) was “increased”.
